Patent publication US8703934B2, “Substituted 4-amino-3,5-dicyano-2-thiopyridines and use thereof” (Bayer Intellectual Property GmbH, priority 2006, dated 2014)
pEC50: −log10 of the molar value.

Experiments:
Type in all cases: cell-based
adenosine A1 receptor = target: T1, adenosine A1 receptor (Homo sapiens, UniProt P30542); assay: Indirect determination of adenosine agonism by way of gene expression (luciferase, CHO cells), A1; conditions: CHO cells stably transfected with A1 receptor cDNA; 1 μM forskolin; 50% inhibition of luciferase answer
T1 construct: expressed in transfected cells; host or cells: CHO (Chinese Hamster Ovary)
T1 sequence (P30542 1-326): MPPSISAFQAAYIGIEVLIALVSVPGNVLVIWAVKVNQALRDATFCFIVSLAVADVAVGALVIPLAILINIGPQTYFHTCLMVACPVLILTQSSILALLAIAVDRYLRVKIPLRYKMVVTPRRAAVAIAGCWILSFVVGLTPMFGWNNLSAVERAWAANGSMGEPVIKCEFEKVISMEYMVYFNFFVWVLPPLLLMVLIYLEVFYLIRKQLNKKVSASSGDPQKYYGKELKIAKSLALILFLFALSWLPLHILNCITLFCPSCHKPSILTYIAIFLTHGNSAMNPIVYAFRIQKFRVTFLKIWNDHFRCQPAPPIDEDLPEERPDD
Excerpt: (§1) B-1. Indirect Determination of the Adenosine Agonism by Way of Gene Expression
(§2) Cells of the CHO (Chinese Hamster Ovary) permanent cell line are transfected stably with the cDNA for the adenosine receptor subtypes A1, A2a and A2b. The adenosine A1 receptors are coupled to the adenylate cyclase by way of G, proteins, while the adenosine A2a and A2b receptors are coupled by way of Gs proteins. In correspondence with this, the formation of cAMP in the cell is inhibited or stimulated, respectively. After that, expression of the luciferase is modulated by way of a cAMP-dependent promoter. The luciferase test is optimized, with the aim of high sensitivity and reproducibility, low variance and good suitability for implementation on a robot system, by varying several test parameters, such as cell density, duration of the growth phase and the test incubation, forskolin concentration and medium composition. The following test protocol is used for pharmacologically characterizing cells and for the robot-assisted substance screening:
(§3) The stock cultures are grown, at 37° C. and under 5% CO2, in DMEM/F12 medium containing 10% FCS (fetal calf serum) and in each case split 1:10 after 2-3 days. The test cultures are seeded in 384-well plates with 2000 cells per well and grown at 37° C. for approx. 48 hours. The medium is then replaced with a physiological sodium chloride solution (130 mM sodium chloride, 5 mM potassium chloride, 2 mM calcium chloride, 20 mM HEPES, 1 mM magnesium chloride hexahydrate, 5 mM sodium bicarbonate, pH 7.4). The substances to be tested, which are dissolved in DMSO, are pipetted into the test cultures (maximum final concentration of DMSO in the test mixture: 0.5%) in a dilution series of from 5×10^−11M to 3×10^−6M (final concentration). 10 minutes later, forskolin is added to the A1 cells and all the cultures are subsequently incubated at 37° C. for four hours. After that, 35 μl of a solution which is composed of 50% lysis reagent (30 mM disodium hydrogenphosphate, 10% glycerol, 3% TritonX100, 25 mM TrisHCl, 2 mM dithiotreitol (DTT), pH 7.8) and 50% luciferase substrate solution (2.5 mM ATP, 0.5 mM luciferin, 0.1 mM coenzyme A, 10 mM tricine, 1.35 mM magnesium sulfate, 15 mM DTT, pH 7.8) are added to the test cultures, which are shaken for approx 1 minute and the luciferase activity is measured using a camera system. The EC50 values are determined, i.e., the concentrations at which 50% of the luciferase answer is inhibited in the case of the A1 cell, and, respectively, 50% of the maximum stimulation with the corresponding substance is achieved in the case of the A2b and A2a cells. […] Pharmacol., 357 (1998), 1-9).

adenosine A2a receptor = target: T2, adenosine A2a receptor (Homo sapiens, UniProt P29274); assay: Indirect determination of adenosine agonism by way of gene expression (luciferase, CHO cells), A2a; conditions: CHO cells stably transfected with A2a receptor cDNA; 50% of maximum luciferase stimulation
T2 construct: expressed in transfected cells; host or cells: CHO (Chinese Hamster Ovary)
T2 sequence (P29274 whole entry): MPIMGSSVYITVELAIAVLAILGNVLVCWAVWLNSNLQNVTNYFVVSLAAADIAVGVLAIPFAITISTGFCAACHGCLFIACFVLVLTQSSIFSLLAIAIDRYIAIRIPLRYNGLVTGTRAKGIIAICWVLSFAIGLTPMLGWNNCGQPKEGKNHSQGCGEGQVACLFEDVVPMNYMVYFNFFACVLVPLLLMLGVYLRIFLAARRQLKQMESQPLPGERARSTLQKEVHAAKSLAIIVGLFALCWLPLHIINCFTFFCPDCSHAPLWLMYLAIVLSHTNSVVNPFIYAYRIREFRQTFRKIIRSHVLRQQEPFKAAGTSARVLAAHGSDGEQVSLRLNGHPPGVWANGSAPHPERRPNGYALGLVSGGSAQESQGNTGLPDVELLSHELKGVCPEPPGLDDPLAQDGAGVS
Excerpt: as §1, §2, §3

adenosine A2b receptor = target: T3, adenosine A2b receptor (Homo sapiens, UniProt P29275); assay: Indirect determination of adenosine agonism by way of gene expression (luciferase, CHO cells), A2b; conditions: CHO cells stably transfected with A2b receptor cDNA; 50% of maximum luciferase stimulation
T3 construct: expressed in transfected cells; host or cells: CHO (Chinese Hamster Ovary)
T3 sequence (P29275 1-332): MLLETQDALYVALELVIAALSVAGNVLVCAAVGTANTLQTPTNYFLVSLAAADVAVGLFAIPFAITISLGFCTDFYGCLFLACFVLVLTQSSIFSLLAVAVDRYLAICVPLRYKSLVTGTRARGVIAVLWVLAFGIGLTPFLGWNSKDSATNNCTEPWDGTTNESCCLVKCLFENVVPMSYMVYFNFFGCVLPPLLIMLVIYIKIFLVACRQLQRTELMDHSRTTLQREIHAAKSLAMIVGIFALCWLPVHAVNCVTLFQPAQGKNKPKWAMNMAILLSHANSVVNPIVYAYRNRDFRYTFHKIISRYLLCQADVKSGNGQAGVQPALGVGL
Excerpt: as §1, §2, §3

Q: Which results are given for `N#Cc1cnc(SCc2csc(-c3ccc(Cl)cc3)n2)c(C#N)c1N1CCCCC1` [Example 34, 2-({[2-(4-Chlorophenyl)-1,3-thiazol-4-yl]methyl}thio)-4-(piperidin-1-yl)pyridine-3,5-dicarbonitrile]?
A: EC50 (adenosine A1 receptor): 46 nM; pEC50 (adenosine A2a receptor): < 5.52; pEC50 (adenosine A2b receptor): < 5.52

Q: Which EC50 (adenosine A1 receptor) does the source give for `N#Cc1c(N)nc(SCc2ccc[n+]([O-])c2)c(C#N)c1N1CCCCC1` [Example 27] here?
A: 0.3 nM

Q: And the pEC50 (adenosine A2a receptor)?
A: 7.20

Q: What about the pEC50 (adenosine A2b receptor) of the same compound?
A: 9.05

Q: With `CN1CCN(c2c(C#N)c(N)nc(SCc3csc(-c4ccc(Cl)cc4)n3)c2C#N)CC1` [Example 4] as the compound, how does the EC50 (adenosine A1 receptor) read?
A: 12 nM

Q: And the pEC50 (adenosine A2a receptor)?
A: < 5.52

Q: What about the pEC50 (adenosine A2b receptor) of the same compound?
A: < 5.52

Q: Which EC50 (adenosine A1 receptor) does the source give for `N#Cc1c(SCc2csc(-c3ccc(Cl)cc3)n2)nc(N2CCC(O)C2)c(C#N)c1N1CCCCC1` (stereo not drawn) [Example 30] here?
A: 5.7 nM

Q: What about the pEC50 (adenosine A2a receptor) of the same compound?
A: 5.99

Q: What about the pEC50 (adenosine A2b receptor) of the same compound?
A: 7.25

Q: What does the source list for `N#Cc1c(N)nc(SCc2csc(Nc3ccc(F)cc3)n2)c(C#N)c1N1CCCCC1` [Example 6]?
A: EC50 (adenosine A1 receptor): 45 nM; pEC50 (adenosine A2a receptor): 5.74; pEC50 (adenosine A2b receptor): < 5.52

Q: Which results are given for `N#Cc1c(N)nc(SCc2csc(-c3ccc(Cl)cc3)n2)c(C#N)c1N1CCCCC1` [Example 2]?
A: EC50 (adenosine A1 receptor): 0.5 nM; pEC50 (adenosine A2a receptor): 6.41; pEC50 (adenosine A2b receptor): 7.36

Q: Which results are given for `COc1nc(SCc2csc(-c3ccc(Cl)cc3)n2)c(C#N)c(N2CCCCC2)c1C#N` [Example 35, 2-({[2-(4-Chlorophenyl)-1,3-thiazol-4-yl]methyl}thio)-6-methoxy-4-(piperidin-1-yl)pyridine-3,5-dicarbonitrile]?
A: EC50 (adenosine A1 receptor): 8.6 nM; pEC50 (adenosine A2a receptor): < 5.52; pEC50 (adenosine A2b receptor): < 5.52

Q: How did the EC50 (adenosine A1 receptor) turn out when `N#Cc1c(N)nc(SCc2csc(-c3ccc(Cl)cc3)n2)c(C#N)c1N1CCC(O)CC1` [Example 1, 2-Amino-6-({[2-(4-chlorophenyl)-1,3-thiazol-4-yl]methyl}thio)-4-(4-hydroxypiperidin-1-yl)pyridine-3,5-dicarbonitrile] was run?
A: 1.3 nM

Q: What about the pEC50 (adenosine A2a receptor) of the same compound?
A: 6.16

Q: What about the pEC50 (adenosine A2b receptor) of the same compound?
A: 6.94

Q: For `N#Cc1c(N)nc(SCc2coc(-c3ccc(Cl)cc3)n2)c(C#N)c1N1CCCCC1` [Example 37, 2-Amino-6-({[2-(4-chlorophenyl)-1,3-oxazol-4-yl]methyl}sulfanyl)-4-(piperidin-1-yl)pyridine-3,5-dicarbonitrile], which EC50 (adenosine A1 receptor) is on record?
A: 2.2 nM

Q: What about the pEC50 (adenosine A2a receptor) of the same compound?
A: 6.45

Q: And the pEC50 (adenosine A2b receptor)?
A: 6.39
